From patent US8394990B2, “Phenylurea inhibitors of the enzyme SOAT-1 and pharmaceutical/cosmetic compositions comprised thereof” (Galderma Research & Development, priority 2007, dated 2013)

Biological target: T1, enzyme ACAT-1 (Homo sapiens, UniProt P35610)
T1 construct: endogenous in cells; host or cells: HepG2
T1 sequence (P35610 1-550): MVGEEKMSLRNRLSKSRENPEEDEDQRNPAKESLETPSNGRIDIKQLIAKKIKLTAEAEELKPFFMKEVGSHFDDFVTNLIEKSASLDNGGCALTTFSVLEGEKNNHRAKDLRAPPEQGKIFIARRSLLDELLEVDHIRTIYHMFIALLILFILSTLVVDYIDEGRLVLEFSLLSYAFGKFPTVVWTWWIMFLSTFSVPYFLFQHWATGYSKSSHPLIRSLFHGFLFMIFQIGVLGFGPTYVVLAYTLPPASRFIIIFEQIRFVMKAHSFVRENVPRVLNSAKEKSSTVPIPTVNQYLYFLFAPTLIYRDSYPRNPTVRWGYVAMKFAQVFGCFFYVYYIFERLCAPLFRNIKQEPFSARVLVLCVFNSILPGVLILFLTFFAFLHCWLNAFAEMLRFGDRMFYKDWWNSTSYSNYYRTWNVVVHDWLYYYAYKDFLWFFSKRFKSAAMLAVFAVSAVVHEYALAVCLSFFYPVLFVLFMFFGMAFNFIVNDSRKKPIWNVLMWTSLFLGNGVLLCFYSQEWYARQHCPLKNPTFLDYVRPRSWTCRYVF
Assay: NBD-cholesterol fluorescence test in HepG2 cells for inhibitory activity towards ACAT-1 (SOAT-1)
Format: cell-based
Conditions: NBD-cholesterol 1 μg/ml, incubation 6 hrs at 37° C., fluorescence excitation 490 nm, emission 540 nm
Procedure: The compounds (I) according to the invention, and the pharmaceutically acceptable salts, solvates and/or hydrates thereof, have inhibitory properties towards the enzyme SOAT-1. This inhibitory action on the enzyme SOAT-1 is measured according to a primary enzymatic test HepG2, as described below.
The compounds of formula (I) according to the invention were subjected to a test making it possible to evaluate their inhibitory activity towards the enzyme ACAT-1 inspired by the following publication: “Identification of ACAT1- and ACAT2-specific inhibitors using a novel, cell based fluorescence assay: individual ACAT uniqueness” J. lipid. Res (2004) vol 45, pages 378-386. The principle of this test is based on the use of NBD-cholesterol, an analogue of cholesterol whose fluorescence depends on its environment. When it is in a polar environment, it is weakly fluorescent, whereas in a non-polar environment it is strongly fluorescent. […]
The following method is applied: the HepG2 cells are incubated in the presence of NBD-cholesterol (1 μg/ml) and of the compound of formula (I) to be tested in transparent-bottomed black 96-well plates at a level of 30000 cells per well. […] After addition of 50 μl of lysis buffer (10 mM NaPO4, 1% lgepal), the plates are shaken for 5 mins and read in fluorescence (excitation 490 nm, emission 540 nm) on a FUSION instrument (Perkin Elmer).

CC(C)c1cccc(C(C)C)c1NC(=O)NCC1(Nc2ccccc2I)CCCC1 [I.2, 1-(2,6-diisopropylphenyl)-3-[1-(2-iodophenylamino)-cyclopentylmethyl)-urea]
IC50: 24.1 nM

CC(C)c1cccc(C(C)C)c1NC(=O)NCC1(Nc2ccccc2-c2ccccc2)CCCC1 [I.4, 1-[1-(biphenyl-2-ylamino)-cyclopentylmethyl]-3-(2,6-diisopropylphenyl)-urea]
IC50: 9.5 nM
